Series [1] in a line: Intravenous and oral pharmacokinetics in Wistar rats. The settings on record: after i.v. administration, first measurement point. It counts as in vivo. As to the method: On the day before administration of the substance, a catheter for obtaining blood is implanted in the jugular vein of the experimental animals (male Wistar rats, body weight 200-250 g) under Isofluran® anesthesia.
Blood samples (8-12 time points) are taken through the catheter sequentially over the course of 24 h after administration of the substance. The administration volume is 10 ml/kg for oral and 1 ml/kg for IV in male Wistar rats. Intravenous administration is via a formulation of 2% N—N Dimethyl acetamide/ethanol 10%/PEG400(30%)/water for IV injection (58%) and via Tween80/PEG400/sterile water in the case of oral administration. […]
Plasma is obtained by centrifuging the samples in heparinized tubes. […] After centrifugation, compound formula (B) and, where appropriate, known cleavage products of the compound formula (B) in the supernatant are determined quantitatively using a suitable LC/MS-MS method.
The measured plasma concentrations are used to calculate pharmacokinetic parameters of the test substance and of the active ingredient compound (A) liberated there from, such as AUC, Cmax, T½ (half-life) and CL (clearance). […]
The plasma concentration/time plots determined are used to calculate the pharmacokinetic parameters such as AUC, Cmax, MRT (mean residence time), t½ (half life) and CL (clearance) employing the validated pharmacokinetic calculation programs. […]

Series [2] can be described thus: In vitro stability in rat plasma (LC-MS). It counts as in vitro ADME. As to the method: The final concentration of the test compound in the assay is 5 micromolar. […] C. The 100 microlitres of aliquot at time point was removed and diluted with ice cold acetonitrile containing IS (200 µL) to stop the reactions. Samples are centrifuged at 10,000 RPM for 5 minutes to precipitate proteins. Supernatants are transferred to micro centrifuge tubes and stored at −20° C. for analysis of LC/MS/MS. The percent parent remaining of the test substance is calculated as ratio of peak area at each time point to peak area ratio at zero min, multiplied by 100.
(§1) API 4000, ESI Agilent 1100 column: Gemini Nx 100 mm×4.6 mm 5.μ; column temperature: 30° C.; eluent A: 0.1% formic acid in water, eluent B: acetonitrile; gradient: 0-2.5 min 95% A, 5% B; 2.5-2.6 min 5% A, 95% B; 2.6-4.2 min 95% A, 5% B; flow rate: 0.8 ml/min; ESI. Q1:464.098, Q3:144.255

Series [3] in a line: Stability in simulating intestinal fluid (SIF). The format is physicochemical. The settings on record: SIF pH 7.4, up to 120 min. As for the experimental part:
On completion of incubation period, the solution is centrifuged and supernatant is taken. To the supernatant, ice cold acetonitrile containing IS is added, vortexed and injected into LCMS/MS.
as §1
SIF/SGF: 2.38 g of SIF original powder (biorelavant media) is dissolved in 1 L of milliQ water. The pH of the solution is adjusted for SIF (7.4) and SGF (2.2) with 0.1N HCl. The ratios of the peak areas (F) at the respective time points in relation to the peak areas at the starting time are calculated. […] The peak area (F) is directly correlated to the amount of test compound which is quantified by the LC MS method.
In simulating intestinal and gastric fluid, the area of the formula B compared with zero minute area to 120 min.

For series [4], the system named is CYP isoforms. Briefly: CYP inhibition studies, overall interpretation. It counts as in vitro ADME, humans. The settings on record: compound formula-B with other drug when administered. As to the method:
The ability of substances to inhibit CYP1A2, CYP2C9, CYP2D6, CYP2C19, CYP2J2 and CYP3A4 in humans was investigated with pooled human liver microsomes as enzyme source in the presence of standard substrates (see below) which form CYP-isoform-specific metabolites.
Standard incubation mixtures comprise NADPH and substrates in 100 mM phosphate buffer (pH 7.4) in a total volume of 200 μl. Test compound are dissolved in acetonitrile. Incubated with pooled human liver microsomes at 37° C. for a defined time. The reactions are stopped by adding 100 μl of acetonitrile in which a suitable internal standard is always present. Precipitated proteins are removed by centrifugation, and the supernatants analyzed by LC-MS/MS. The data represents the extrapolated IC50 (μM) concentration derived from 3 μM.
This is an essential parameter to gauge drug-drug interactions.

The values below come from US20160251342A1, “ALDEHYDE DERIVATIVE OF SUBSTITUTED OXAZOLIDINONES” (WANBURY LTD., priority 2012, published 2016).

Turning to `O=CN(C[C@H]1CN(c2ccc(N3CCOCC3=O)cc2)C(=O)O1)C(=O)c1ccc(Cl)s1` [compound formula (B), 5-chloro-N-formyl-N-({(5S)-2-oxo-3-[4-(3-oxomorpholin-4-yl)phenyl]-1,3-oxazolidin-5-yl}methyl)thiophene-2-carboxamide], the “Detectability of unchanged test substance in plasma” value in series [1] was “no longer detectable”. Besides, the “Amount of test product detected (conversion to rivaroxaban from zero min)” value in series [2] is reported as “min. Neglible”. Further, in series [3], the “Stability at simulating intestinal conditions” value is given as “stable”. Besides, the “Interpretation: drug-drug interaction” value in series [4] is given as “Low drug-drug interaction”.
